Consider 56 molecules from patent US11612604B2, “Methods of treating cancer with PLK4 inhibitors” (LUDWIG INSTITUTE FOR CANCER RESEARCH LTD, priority 2017, dated 2023).

Usually IC50 stands for the point on the concentration scale where inhibition reaches its midpoint. Read a low IC50 as higher potency.

Where only a bound is given, the exact number is not on record here.

The experiment deals with T1, PLK4 (Homo sapiens, UniProt O00444).
T1 sequence (O00444 1-970): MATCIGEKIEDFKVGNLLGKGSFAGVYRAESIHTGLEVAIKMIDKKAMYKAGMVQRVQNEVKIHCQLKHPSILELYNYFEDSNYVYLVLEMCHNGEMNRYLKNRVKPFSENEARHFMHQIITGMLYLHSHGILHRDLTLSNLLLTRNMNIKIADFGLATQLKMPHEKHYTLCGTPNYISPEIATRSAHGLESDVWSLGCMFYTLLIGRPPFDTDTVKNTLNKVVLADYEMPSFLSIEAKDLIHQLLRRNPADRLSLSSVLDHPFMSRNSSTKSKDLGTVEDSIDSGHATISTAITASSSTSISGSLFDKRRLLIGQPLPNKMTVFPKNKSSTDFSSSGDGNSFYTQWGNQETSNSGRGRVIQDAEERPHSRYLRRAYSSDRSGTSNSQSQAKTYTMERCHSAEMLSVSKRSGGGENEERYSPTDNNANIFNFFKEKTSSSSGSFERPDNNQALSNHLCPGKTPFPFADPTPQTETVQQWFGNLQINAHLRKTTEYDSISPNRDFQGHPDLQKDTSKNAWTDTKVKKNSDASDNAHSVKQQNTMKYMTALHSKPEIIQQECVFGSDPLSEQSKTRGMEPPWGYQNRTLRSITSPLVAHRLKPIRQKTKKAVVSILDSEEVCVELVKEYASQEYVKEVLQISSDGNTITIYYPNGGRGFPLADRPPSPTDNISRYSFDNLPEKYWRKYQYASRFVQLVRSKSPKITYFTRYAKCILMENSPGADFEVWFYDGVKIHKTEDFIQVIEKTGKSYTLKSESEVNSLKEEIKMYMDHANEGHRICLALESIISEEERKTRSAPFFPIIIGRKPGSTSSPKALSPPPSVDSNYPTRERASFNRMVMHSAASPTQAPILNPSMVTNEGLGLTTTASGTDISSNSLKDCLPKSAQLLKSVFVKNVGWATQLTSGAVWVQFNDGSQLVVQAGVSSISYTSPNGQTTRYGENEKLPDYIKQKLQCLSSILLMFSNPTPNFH
Briefly: Activity (IC50) of the Table 1 compounds as PLK4 inhibitors. The conditions noted are these: Table 1, IC50 class. It counts as biochemical.
Take `Cc1cc(Nc2nc(Sc3ccc(NC(=O)C4CC4)cc3)nc(N3CCN(C)CC3)c2C)n[nH]1`: the IC50 is under 100 nM.

The molecule `CNc1nc(Sc2ccc(NC(=O)C3CC3)cc2)nc(Nc2cc(C)[nH]n2)c1C` displayed a concentration for half-maximal inhibition (IC50) of under 100 nM.

`CCNc1nc(Sc2ccc(NC(=O)C3CC3)cc2)nc(Nc2cc(C)[nH]n2)c1C` registered an IC50 of under 100 nM.

For `CCCC(=O)Nc1ccc(Sc2nc(Nc3cc(C)[nH]n3)c(C)c(N3CCN(C)CC3)n2)cc1`, the IC50 was under 100 nM.

In the case of `Cc1cc(Nc2nc(Sc3ccc(NC(=O)C4CC4)cc3)nc(NC(C)C)c2C)n[nH]1`, the IC50 is under 100 nM.

With `CCN(C)c1nc(Sc2ccc(NC(C)=O)cc2)nc(Nc2cc(C)[nH]n2)c1C`, the IC50 was under 100 nM.

Consider `COc1c(Nc2cc(C)[nH]n2)nc(Sc2ccc(NC(C)=O)cc2)nc1N1CCC(CCN2CCOCC2)CC1`, for which the IC50 was under 100 nM.

`COc1c(Nc2cc(C)[nH]n2)nc(Sc2ccc(NC(C)=O)cc2)nc1NC1CCNCC1` displayed a concentration for half-maximal inhibition (IC50) of under 100 nM.

Regarding `CCc1cc(Nc2nc(SC)nc(N3CCN(CCN(C)C)CC3)c2OC)n[nH]1`, the IC50 was under 100 nM.

`CCc1cc(Nc2nc(SC)nc(N3CCN(CCN(C)C)CC3)c2C)n[nH]1` gave a half-inhibitory concentration (IC50) of under 100 nM.

Molecule `COc1c(Nc2cc(C)[nH]n2)nc(Sc2ccc(NC(C)=O)nc2)nc1N1CCOCC1` came in with an IC50 of under 100 nM.

Regarding `COc1c(Nc2cc(C)[nH]n2)nc(Sc2ccc(S(=O)(=O)C(C)(C)c3ncc[nH]3)cc2)nc1N1CCN(CCN(C)C)CC1`, the IC50 was under 100 nM.

Turning to `COc1c(Nc2cc(C)[nH]n2)nc(Sc2ccc(S(=O)(=O)C(C)(C)c3cccc([N+](=O)[O-])c3F)cc2F)nc1N1CCC(C(N)=O)CC1`, the IC50 was under 100 nM.

Turning to `COc1c(Nc2cc(C)[nH]n2)nc(Sc2ccc(S(=O)(=O)C(C)(C)c3cccc([N+](=O)[O-])c3F)cc2F)nc1N1CCN(C(C)=O)CC1`, the IC50 is under 100 nM.

`COc1c(Nc2cc(C)[nH]n2)nc(Sc2ccc(S(=O)(=O)C(C)(C)c3cccc([N+](=O)[O-])c3F)cc2F)nc1N1CCC(C(=O)N(C)C)CC1` returned an IC50 of under 100 nM.

`COc1c(Nc2cc(C)[nH]n2)nc(Sc2ccc(S(=O)(=O)C(C)(C)c3c(F)c(F)cc(F)c3F)cc2F)nc1N1CCC(CCNC(C)=O)CC1` yielded a half-maximal inhibitory concentration (IC50) of under 100 nM.

Molecule `COc1c(Nc2cc(C)[nH]n2)nc(Sc2ccc(S(=O)(=O)C(C)(C)c3c(F)c(F)cc(F)c3F)cc2F)nc1N1CCC(CCN)CC1` displayed an IC50 of under 100 nM.

As to `COc1c(Nc2cc(C)[nH]n2)nc(Sc2ccc(S(=O)(=O)C3(c4cccc([N+](=O)[O-])c4F)CC3)cc2F)nc1N1CCN(CCNC(C)=O)CC1`, the IC50 is under 100 nM.

In the case of `COc1c(Nc2cc(C)[nH]n2)nc(Sc2ccc(S(=O)(=O)C(C)(C)c3c(F)c(F)cc(F)c3F)cc2F)nc1N1CCN(C(C)=O)CC1`, the IC50 was under 100 nM.

`COc1c(Nc2cc(C)[nH]n2)nc(Sc2ccc(S(=O)(=O)Cc3cccc([N+](=O)[O-])c3F)cc2F)nc1N1CCC(NC(C)=O)CC1` registered an IC50 of under 100 nM.

`COc1c(Nc2cc(C)[nH]n2)nc(Sc2ccc(S(=O)(=O)C3(c4cccc([N+](=O)[O-])c4F)CC3)cc2F)nc1N1CCC(CN(C)C)CC1` showed an IC50 of under 100 nM.

Consider `COc1c(Nc2cc(C)[nH]n2)nc(Sc2ccc(S(=O)(=O)C3(c4cccc([N+](=O)[O-])c4F)CC3)cc2F)nc1N1CCC(C(N)=O)CC1`, for which the half-maximal inhibitory concentration (IC50) was under 100 nM.

Molecule `COc1c(Nc2cc(C)[nH]n2)nc(Sc2ccc(S(=O)(=O)C(C)(C)c3c(F)c(F)cc(F)c3F)cc2F)nc1N1CCC(N)C1` (centres unmarked) came in with a half-inhibitory concentration (IC50) of under 100 nM.

`COc1c(Nc2cc(C)[nH]n2)nc(Sc2ccc(S(=O)(=O)C(C)(C)c3c(F)c(F)cc(F)c3F)cc2F)nc1N1CCC(N)CC1` yielded a 50% inhibitory concentration (IC50) of under 100 nM.

`COc1c(Nc2cc(C)[nH]n2)nc(Sc2ccc(S(=O)(=O)C(C)(C)c3cccc([N+](=O)[O-])c3F)cc2F)nc1N1CCC(N)C1` (centres unmarked) returned a 50% inhibitory concentration (IC50) of under 100 nM.

For `COc1c(Nc2cc(C)[nH]n2)nc(Sc2ccc(S(=O)(=O)Cc3cccc([N+](=O)[O-])c3F)cc2F)nc1N1CCC(CC(N)=O)CC1`, the IC50 is under 100 nM.

Molecule `COc1c(Nc2cc(C)[nH]n2)nc(Sc2ccc(S(=O)(=O)Cc3cccc([N+](=O)[O-])c3F)cc2F)nc1N1CCC(CCNC(C)=O)CC1` yielded an IC50 of under 100 nM.

Consider `COc1c(Nc2cc(C)[nH]n2)nc(Sc2ccc(S(=O)(=O)C3(c4c(F)c(F)cc(F)c4F)CC3)cc2F)nc1N1CCOCC1`, for which the 50% inhibitory concentration (IC50) was under 100 nM.

With `COc1c(Nc2cc(C)[nH]n2)nc(Sc2ccc(S(=O)(=O)C(C)(C)c3cccc([N+](=O)[O-])c3F)cc2F)nc1N1CCC(NC(=O)C(F)(F)F)CC1`, the IC50 is under 100 nM.

`COc1c(Nc2cc(C)[nH]n2)nc(Sc2ccc(S(=O)(=O)C(C)(C)c3c(F)c(F)cc(F)c3F)cc2F)nc1N1CCC(CC(N)=O)CC1`: the half-maximal inhibitory concentration (IC50) was under 100 nM.

Turning to `COc1c(Nc2cc(C)[nH]n2)nc(Sc2ccc(S(=O)(=O)C(C)(C)c3c(F)c(F)cc(F)c3F)cc2F)nc1N1CCC(CN)CC1`, the IC50 is under 100 nM.

Take `COc1c(Nc2cc(C)[nH]n2)nc(Sc2ccc(S(=O)(=O)C3(c4cccc([N+](=O)[O-])c4F)CC3)cc2F)nc1N1CCC(CCN(C)C)CC1`: the IC50 was under 100 nM.

As to `COc1c(Nc2cc(C)[nH]n2)nc(Sc2ccc(S(=O)(=O)C3(c4cccc([N+](=O)[O-])c4F)CC3)cc2F)nc1N1CCOCC1`, the IC50 was under 100 nM.

Molecule `COc1c(Nc2cc(C)[nH]n2)nc(Sc2ccc(S(=O)(=O)C3(c4cccc([N+](=O)[O-])c4F)CC3)cc2F)nc1N1CCN(CCN(C)C)CC1` showed a half-maximal inhibitory concentration (IC50) of under 100 nM.

`COc1c(Nc2cc(C)[nH]n2)nc(Sc2ccc(S(=O)(=O)C3(c4cccc([N+](=O)[O-])c4F)CC3)cc2F)nc1N1CCC(CC(N)=O)CC1` gave a 50% inhibitory concentration (IC50) of under 100 nM.

The molecule `COc1c(Nc2cc(C)[nH]n2)nc(Sc2ccc(S(=O)(=O)C3(c4cccc([N+](=O)[O-])c4F)CC3)cc2F)nc1N1CCC(NC(C)=O)CC1` displayed an IC50 of under 100 nM.

Molecule `COc1c(Nc2cc(C)[nH]n2)nc(Sc2ccc(S(=O)(=O)C(C)(C)c3c(F)c(F)cc(F)c3F)cc2F)nc1N1CCNCC1` showed an IC50 of under 100 nM.

`COc1c(Nc2cc(C)[nH]n2)nc(Sc2ccc(S(=O)(=O)C3(c4cccc([N+](=O)[O-])c4F)CC3)cc2F)nc1N1CCC(NC(=O)C(F)(F)F)CC1` had a concentration for half-maximal inhibition (IC50) of under 100 nM.

`COc1c(Nc2cc(C)[nH]n2)nc(Sc2ccc(S(=O)(=O)C3(c4cccc([N+](=O)[O-])c4F)CC3)cc2F)nc1N1CCC(C(=O)N(C)C)CC1` gave an IC50 of under 100 nM.

With `COc1c(Nc2cc(C)[nH]n2)nc(Sc2ccc(S(=O)(=O)C3(c4cccc([N+](=O)[O-])c4F)CC3)cc2F)nc1N1CCNCC1`, the IC50 is under 100 nM.

For the molecule `COc1c(Nc2cc(C)[nH]n2)nc(Sc2ccc(S(=O)(=O)C3(c4cccc([N+](=O)[O-])c4F)CC3)cc2F)nc1N1CCC(N)CC1`, the IC50 was under 100 nM.

On to `COc1c(Nc2cc(C)[nH]n2)nc(Sc2ccc(S(=O)(=O)C3(c4cccc([N+](=O)[O-])c4F)CC3)cc2F)nc1N1CCC(CN)CC1`, for which the IC50 was under 100 nM.

Consider `COc1c(Nc2cc(C)[nH]n2)nc(Sc2ccc(S(=O)(=O)C(C)(C)c3cccc([N+](=O)[O-])c3F)cc2F)nc1N1CCC(CCNC(=O)C(F)(F)F)CC1`, for which the IC50 was under 100 nM.

`COc1c(Nc2cc(C)[nH]n2)nc(Sc2cccc(NC(C)=O)c2)nc1N1CCN(CCN(C)C)CC1` came in with an IC50 of under 100 nM.

Regarding `COc1c(Nc2cc(C)[nH]n2)nc(Sc2cccc(NC(C)=O)c2)nc1N1CCOCC1`, the IC50 is under 100 nM.

In turn, `COc1c(Nc2cc(C)[nH]n2)nc(Sc2ccc(NC(C)=O)cc2)nc1N1CCN(CC(=O)N2CCOCC2)CC1` had a half-inhibitory concentration (IC50) of under 100 nM.

The molecule `COc1c(Nc2cc(C)[nH]n2)nc(Sc2ccc(NC(C)=O)cc2)nc1N1CCN(CC(=O)C2CCCCC2)CC1` displayed an IC50 of under 100 nM.

Take `Cc1cc(Nc2nc(Sc3ccc([N+](=O)[O-])cc3)nc3c2CCC32CCN(C(=O)C(C)(C)C)CC2)n[nH]1`: the concentration for half-maximal inhibition (IC50) was under 100 nM.

`Cc1cc(Nc2nc(Sc3ccc([N+](=O)[O-])cc3)nc3c2CCC32CCNCC2)n[nH]1` showed an IC50 of 100 to 1000 nM.

`CC(=O)Nc1ccc(Sc2nc(Nc3cc(C)[nH]n3)c3c(n2)C2(CC3)CCN(C(=O)C(C)(C)C)CC2)cc1` gave an IC50 of under 100 nM.

Take `COc1c(Nc2cc(C)[nH]n2)nc(Sc2ccc([N+](=O)[O-])cc2)nc1N1CCN(CCN(C)C)CC1`: the IC50 was under 100 nM.

`COc1c(Nc2cc(C)[nH]n2)nc(Sc2ccc(NC(C)=O)cc2)nc1C1=CCNCC1` yielded a half-maximal inhibitory concentration (IC50) of under 100 nM.

Molecule `COc1c(Nc2cc(C)[nH]n2)nc(Sc2ccc(NC(C)=O)cc2)nc1N1CCN(CCN(C)C)C(C)C1` (centres unmarked) gave a concentration for half-maximal inhibition (IC50) of under 100 nM.

In the case of `COc1c(Nc2cc(C)[nH]n2)nc(Sc2ccc(NC(C)=O)cc2)nc1C1=CCN(CC(=O)N(C)C)CC1`, the IC50 was under 100 nM.

Take `COc1c(Nc2cc(C)[nH]n2)nc(Sc2ccc(NC(C)=O)cc2)nc1C1=CCN(CCN(C)C)CC1`: the IC50 is under 100 nM.

For `COc1c(Nc2cc(C)[nH]n2)nc(Sc2ccc(NC(C)=O)cc2)nc1N1CCN(CCN(C)C)CC1C` (centres unmarked), the IC50 was under 100 nM.
